From US20240368163A1, “COMPOUNDS AND METHODS FOR MODULATING SPLICING” (REMIX THERAPEUTICS INC., priority 2021, published 2024)
Where two headings read alike, the source gives them in different places.

Assays:
Format in all cases: cell-based, human
MYB [1] = experiment: HiBiT protein abundance assay, MYB; conditions: Homo sapiens, modified K562 cells
Outline: (§1)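 Protein abundance measured by Nano-Glo HiBiT lytic luminescence after 24 h compound exposure of modified K562 lines, 10000 cells/well, top final dose 10 μM in 3-fold steps. Four-parameter fit of control-normalised response gives concentration reducing abundance to 50% of untreated.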

HTT [2] = experiment: Splicing RT-qPCR assay, HTT mRNA canonical junction (CJ) and alternative junction (AJ); conditions: Homo sapiens, read-out: HTT IC50 (decrease in CJ mRNA levels)
Outline: (§2)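 A673 or K562 cells treated 24 h at 37 °C with 11-point 3-fold dilutions, top 10 uM, DMSO ≤0.25%. Lysates read by RT-qPCR for CJ and AJ isoforms, normalized to GAPDH, GUSB or PPIA; ΔΔCt vs DMSO converted to RQ, then percent response.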

Target C [3] = experiment: Splicing RT-qPCR panel, Target C canonical junction (CJ) mRNA; conditions: Homo sapiens, read-out: Target C IC50 (decrease in CJ mRNA levels)
Outline: as §2

Target C [4] = experiment: HiBiT protein abundance assay, Target C; conditions: Homo sapiens, modified K562 cells
Outline: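 Target protein levels in engineered HiBiT-tagged cells were read by lytic luminescence after 24 h compound exposure (10000 cells/well, 10 μM top final, 3-fold steps, ≤0.25% DMSO). Unmodified K562 served as baseline; four-parameter regression gave concentration reducing abundance to 50%.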

HTT [5] = experiment: HiBiT protein abundance assay, HTT; conditions: Homo sapiens, modified K562 cells
Outline: as §1

MYB [6] = experiment: Splicing RT-qPCR assay, MYB mRNA canonical junction (CJ) and alternative junction (AJ); conditions: Homo sapiens, read-out: MYB IC50 (decrease in CJ mRNA levels)
Outline: as §2

SMN2 = experiment: Splicing RT-qPCR panel, SMN2 canonical junction (CJ) mRNA; conditions: Homo sapiens, read-out: SMN2 IC50 (decrease in CJ mRNA levels)
Outline: as §2

[7] = RT-qPCR panel, canonical junction mRNA, compound concentration having 50% response in CJ decrease
[8] = gene panel, CJ qPCR, protocol of Example 142

Row | Compound | IC50 (MYB [1]; K562, 24 h, Table 13A) | IC50 (HTT [2]; [7]) | IC50 (Target C [3]; [7]) | IC50 (Target C [4]; K562, 24 h, Table 13A) | IC50 (HTT [5]; K562, 24 h, Table 13A) | IC50 (MYB [6]; [7]) | IC50 (SMN2; [7]) | IC50 (MYB [1]; Table 13B, 24 hours) | IC50 (HTT [2]; [8]) | IC50 (Target C [3]; [8]) | IC50 (Target C [4]; Table 13B, 24 hours) | IC50 (HTT [5]; Table 13B, 24 hours) | IC50 (MYB [6]; [8]) | IC50 (SMN2; [8]) | IC50 (MYB [1]; K562, 24 h, Table 13B) | IC50 (Target C [4]; K562, 24 h, Table 13B) | IC50 (HTT [5]; K562, 24 h, Table 13B)
1 | CN(c1ncc(-c2ccc(-c3cn[nH]c3)c3ncsc23)nn1)[C@@H]1CC2CCC[C@@H](C1)N2C [Compound 573] | 1000 to 10000 nM | 1000 to 10000 nM | > 10000 nM | 1000 to 10000 nM | 1000 to 10000 nM | > 10000 nM | > 10000 nM | – | – | – | – | – | – | – | – | – | –
2 | CN(c1ncc(-c2ccc(-n3cccn3)c3[nH]ncc23)nn1)[C@@H]1C[C@H]2CCC[C@@H](C1)N2C [Compound 575] | 1000 to 10000 nM | 100 to 1000 nM | 1000 to 10000 nM | 1000 to 10000 nM | 100 to 1000 nM | > 10000 nM | 1000 to 10000 nM | – | – | – | – | – | – | – | – | – | –
3 | c1cnn(-c2ccc(-c3cnc(N4CCNC5(CC5)C4)nn3)c3cn[nH]c23)c1 [Compound 577] | 1000 to 10000 nM | 100 to 1000 nM | > 10000 nM | > 10000 nM | 1000 to 10000 nM | > 10000 nM | 1000 to 10000 nM | – | – | – | – | – | – | – | – | – | –
4 | CC(C)(C)[C@@H]1CN(c2ncc(-c3ccc(-n4cccn4)c4[nH]ncc34)nn2)CCN1 [Compound 582] | 1000 to 10000 nM | 100 to 1000 nM | 1000 to 10000 nM | 1000 to 10000 nM | 100 to 1000 nM | 1000 to 10000 nM | < 100 nM | – | – | – | – | – | – | – | – | – | –
5 | COc1nc(-c2ccc(N(C)[C@@H]3C[C@H]4CC[C@@H](C3)N4)nn2)ccc1-n1cccn1 [Compound 907] | – | – | – | – | – | – | – | 1000 to 10000 nM | 100 to 1000 nM | > 10000 nM | 1000 to 10000 nM | 100 to 1000 nM | 1000 to 10000 nM | 100 to 1000 nM | – | – | –
6 | COc1nc(-c2ccc(N(C)[C@H]3CCN[C@@H](C)C3)nn2)ccc1-n1cccn1 [Compound 908] | – | – | – | – | – | – | – | – | > 10000 nM | 1000 to 10000 nM | – | – | > 10000 nM | 1000 to 10000 nM | 1000 to 10000 nM | > 10000 nM | 1000 to 10000 nM
7 | Cc1nc(-c2ccc(N(C)[C@@H]3C[C@H]4CC[C@@H](C3)N4)nn2)ccc1-c1cn[nH]c1 [Compound 912] | – | – | – | – | – | – | – | – | 1000 to 10000 nM | 1000 to 10000 nM | – | – | 1000 to 10000 nM | 100 to 1000 nM | 1000 to 10000 nM | 1000 to 10000 nM | 1000 to 10000 nM
8 | COc1nc(-c2ccc(N(C)[C@@H]3C[C@H]4CC[C@@H](C3)N4)nn2)ncc1-c1cn[nH]c1 [Compound 913] | – | – | – | – | – | – | – | – | 1000 to 10000 nM | 1000 to 10000 nM | – | – | 1000 to 10000 nM | 1000 to 10000 nM | 1000 to 10000 nM | 1000 to 10000 nM | 1000 to 10000 nM
9 | COc1cc(-c2ccc(N(C)[C@@H]3C[C@H]4CC[C@@H](C3)N4)nn2)ccc1-c1cn[nH]c1 [Compound 914] | – | – | – | – | – | – | – | – | 100 to 1000 nM | 100 to 1000 nM | – | – | 1000 to 10000 nM | < 100 nM | 1000 to 10000 nM | 100 to 1000 nM | 1000 to 10000 nM
10 | CN(c1ccc(-c2ccc(-c3cn[nH]c3)c(C(F)(F)F)n2)nn1)[C@@H]1C[C@H]2CC[C@@H](C1)N2 [Compound 916] | – | – | – | – | – | – | – | – | > 10000 nM | > 10000 nM | – | – | > 10000 nM | > 10000 nM | > 10000 nM | > 10000 nM | > 10000 nM
11 | COc1cc(-c2ccc(N(C)[C@@H]3C[C@H]4CC[C@@H](C3)N4)nn2)ncc1-c1cn[nH]c1 [Compound 921] | – | – | – | – | – | – | – | – | > 10000 nM | > 10000 nM | – | – | > 10000 nM | 1000 to 10000 nM | 1000 to 10000 nM | > 10000 nM | > 10000 nM
12 | CN(c1ccc(-c2ccc(-c3cn[nH]c3)c(Cl)n2)nn1)[C@@H]1C[C@H]2CC[C@@H](C1)N2 [Compound 923] | – | – | – | – | – | – | – | – | < 100 nM | 100 to 1000 nM | – | – | 100 to 1000 nM | < 100 nM | 100 to 1000 nM | < 100 nM | < 100 nM
13 | COc1nc(-c2ccc(NC3CCNCC3)nn2)ccc1-c1cn[nH]c1 [Compound 924] | – | – | – | – | – | – | – | – | 1000 to 10000 nM | > 10000 nM | – | – | > 10000 nM | 100 to 1000 nM | 1000 to 10000 nM | > 10000 nM | > 10000 nM
14 | COc1nc(-c2ccc(NC3CCNCC3)nn2)ccc1-c1cnn(C)c1 [Compound 925] | – | – | – | – | – | – | – | – | 1000 to 10000 nM | > 10000 nM | – | – | 1000 to 10000 nM | 100 to 1000 nM | 1000 to 10000 nM | 1000 to 10000 nM | 1000 to 10000 nM
15 | COc1nc(-c2ccc(OC3CC(C)(C)NC(C)(C)C3)nn2)ccc1-c1cnn(C)n1 [Compound 926] | – | – | – | – | – | – | – | – | 100 to 1000 nM | 1000 to 10000 nM | – | – | 1000 to 10000 nM | 100 to 1000 nM | 1000 to 10000 nM | 100 to 1000 nM | 100 to 1000 nM
16 | COc1nc(-c2ccc(N(C)C3CC(C)(C)NC(C)(C)C3)nn2)ccc1-c1cnn(C)n1 [Compound 927] | – | – | – | – | – | – | – | – | 100 to 1000 nM | 1000 to 10000 nM | – | – | 1000 to 10000 nM | 100 to 1000 nM | 100 to 1000 nM | 100 to 1000 nM | 100 to 1000 nM
17 | COc1nc(-c2ccc(N(C)[C@@H]3C[C@H]4CC[C@@H](C3)N4)nn2)cnc1-c1cn[nH]c1 [Compound 928] | – | – | – | – | – | – | – | – | 100 to 1000 nM | 100 to 1000 nM | – | – | 100 to 1000 nM | < 100 nM | 100 to 1000 nM | 100 to 1000 nM | 100 to 1000 nM
18 | CCOc1nc(-c2ccc(N(C)[C@@H]3C[C@H]4CC[C@@H](C3)N4)nn2)ccc1-c1cn[nH]c1 [Compound 929] | – | – | – | – | – | – | – | – | < 100 nM | < 100 nM | – | – | < 100 nM | < 100 nM | < 100 nM | < 100 nM | < 100 nM
19 | COc1nc(-c2ccc(N(C)C3C[C@H]4CC[C@@H](C3)N4)nn2)ccc1-c1cnn(C)n1 (stereo partly shown) [Compound 932] | – | – | – | – | – | – | – | – | 100 to 1000 nM | 100 to 1000 nM | – | – | 100 to 1000 nM | 100 to 1000 nM | 100 to 1000 nM | 100 to 1000 nM | 100 to 1000 nM
